Reference: patent US11667631B2, “FGFR4 inhibitor, preparation method therefor, and applications thereof” (Jiangsu Hansoh Pharmaceutical Group Co., Ltd., priority 2016, dated 2023)
pIC50: −log10 of the molar value.

Key:
FGFR4 kinase = FGFR4 kinase (Homo sapiens (Human), UniProt P22455); experiment: Enzymologic experiment of FGFR4 (TR-FRET); format: biochemical; conditions: FGFR4 kinase activity
Method: In this experiment, the inhibitory effect of the compounds on FGFR4 kinase activity was tested by a fluorescence resonance energy transfer (TR-FRET) method, and the half maximal inhibitory concentration (IC50) of the compounds on the FGFR4 kinase activity was determined.
2) 1˜5 μL of diluted solution in gradient of the compound was added.
3) 1˜5 μL of a substrate mixture containing substrate polypeptide with a final concentration of 5˜50 nM and ATP with a final concentration of 10˜200 μM was added.
4) The mixture was incubated for 0.5˜3 hours at room temperature.
5) 10 μL of EDTA and a test solution comprising labeled antibody were added, and the plate was incubated for 1 hour at room temperature.
7) The inhibition rates were calculated according to the fluorescence signal values.

FGFR1 kinase = FGFR1 kinase (Homo sapiens (Human), UniProt P11362); experiment: Enzymologic experiment of FGFR1 (TR-FRET); format: biochemical; conditions: FGFR1 kinase activity
Procedure, shortened: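 FGFR1 at 0.1˜5 nM final with substrate peptide 5˜50 nM and ATP 10˜200 μM final, 0.5˜3 h at room temperature. Stopped with EDTA plus labeled antibody for 1 h; TR-FRET signal read at 665 nm, IC50 fitted from inhibition rates.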

Hep 3B cells = experiment: Inhibition of Hep 3B cell proliferation (CellTiter-Glo); format: cell-based; conditions: Homo sapiens, Hep3B; Hep 3B cell proliferation, 72 hours, CellTiter-Glo; read-out: Hep 3B IC50
HuH-7 cells = experiment: Inhibition of HuH-7 cell proliferation (CellTiter-Glo); format: cell-based; conditions: Homo sapiens; HuH-7 cell proliferation, 72 hours, CellTiter-Glo; read-out: HuH-7 IC50
Procedure, shortened: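 HuH-7 cells plated and left 16–24 h, then exposed to serially diluted compound for 72 h at 37 °C, 5% CO2. Viability read by CellTiter-Glo luminescence. IC50 obtained by curve fitting of inhibition rates.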

SK-HEP-1 cells = experiment: Inhibition of SK-HEP-1 cell proliferation (CellTiter-Glo); format: cell-based; conditions: Homo sapiens, SK-HEP1; SK-HEP-1 cell proliferation, 72 hours, CellTiter-Glo; read-out: SK-HEP-1 IC50
Procedure, shortened: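 Cells seeded and allowed to attach 16–24 h, then exposed to serially diluted compound for 72 h at 37 °C, 5% CO2. Viability read by CellTiter-Glo luminescence; IC50 fitted from inhibition rates across concentrations.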

[1] = Pharmacokinetic (PK) analysis in rats; format: in vivo, Sprague Dawley (SD) rats; conditions: SD rats, single intragastric administration, 5 mg/kg; for Peak Time tmax: (sampling in hours); for AUC(0-t) / AUC(0-inf) / half-life / MRT / Cmax: Sprague-Dawley, rat, plasma, po; for AUC(0-t): read-out: Area Under Curve AUC0-t; for AUC(0-inf): read-out: Area Under Curve AUC0-∞; for half-life: read-out: Half-Time t1/2 (converted); for MRT: read-out: Mean Residence Time MRT; for Cmax: read-out: Plasma Concentration Cmax
Procedure, shortened: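 Intravenous blood (0.2 ml) was collected into K2EDTA and centrifuged to obtain plasma. Plasma (40 μL) was protein-precipitated with 160 μL acetonitrile. Compound levels were measured by LC/MS/MS on a C18 column using 0.1% formic acid in water and acetonitrile at 0.8 mL/min.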

FGFR1 kinase, sequence (P11362 22-822): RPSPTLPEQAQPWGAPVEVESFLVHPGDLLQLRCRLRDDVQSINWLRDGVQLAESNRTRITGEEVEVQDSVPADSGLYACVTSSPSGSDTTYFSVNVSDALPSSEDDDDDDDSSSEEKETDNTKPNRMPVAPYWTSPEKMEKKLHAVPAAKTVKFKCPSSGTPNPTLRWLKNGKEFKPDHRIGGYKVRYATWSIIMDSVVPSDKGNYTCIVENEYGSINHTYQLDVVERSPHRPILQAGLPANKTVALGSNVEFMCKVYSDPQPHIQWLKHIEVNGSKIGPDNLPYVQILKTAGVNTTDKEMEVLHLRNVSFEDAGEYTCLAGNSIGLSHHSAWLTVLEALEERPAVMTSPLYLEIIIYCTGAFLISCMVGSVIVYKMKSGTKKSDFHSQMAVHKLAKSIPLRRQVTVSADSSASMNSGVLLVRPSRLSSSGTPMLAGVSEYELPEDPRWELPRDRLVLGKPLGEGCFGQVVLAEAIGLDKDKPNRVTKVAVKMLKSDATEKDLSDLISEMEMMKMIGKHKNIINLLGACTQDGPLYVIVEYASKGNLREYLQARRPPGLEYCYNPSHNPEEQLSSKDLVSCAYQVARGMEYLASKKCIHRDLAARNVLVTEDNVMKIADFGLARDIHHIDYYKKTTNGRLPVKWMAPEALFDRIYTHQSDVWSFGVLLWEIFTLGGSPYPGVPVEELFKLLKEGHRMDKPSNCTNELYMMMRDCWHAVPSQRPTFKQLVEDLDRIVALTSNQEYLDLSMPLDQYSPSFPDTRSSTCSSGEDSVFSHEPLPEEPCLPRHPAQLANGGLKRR
FGFR4 kinase, sequence (P22455 22-802): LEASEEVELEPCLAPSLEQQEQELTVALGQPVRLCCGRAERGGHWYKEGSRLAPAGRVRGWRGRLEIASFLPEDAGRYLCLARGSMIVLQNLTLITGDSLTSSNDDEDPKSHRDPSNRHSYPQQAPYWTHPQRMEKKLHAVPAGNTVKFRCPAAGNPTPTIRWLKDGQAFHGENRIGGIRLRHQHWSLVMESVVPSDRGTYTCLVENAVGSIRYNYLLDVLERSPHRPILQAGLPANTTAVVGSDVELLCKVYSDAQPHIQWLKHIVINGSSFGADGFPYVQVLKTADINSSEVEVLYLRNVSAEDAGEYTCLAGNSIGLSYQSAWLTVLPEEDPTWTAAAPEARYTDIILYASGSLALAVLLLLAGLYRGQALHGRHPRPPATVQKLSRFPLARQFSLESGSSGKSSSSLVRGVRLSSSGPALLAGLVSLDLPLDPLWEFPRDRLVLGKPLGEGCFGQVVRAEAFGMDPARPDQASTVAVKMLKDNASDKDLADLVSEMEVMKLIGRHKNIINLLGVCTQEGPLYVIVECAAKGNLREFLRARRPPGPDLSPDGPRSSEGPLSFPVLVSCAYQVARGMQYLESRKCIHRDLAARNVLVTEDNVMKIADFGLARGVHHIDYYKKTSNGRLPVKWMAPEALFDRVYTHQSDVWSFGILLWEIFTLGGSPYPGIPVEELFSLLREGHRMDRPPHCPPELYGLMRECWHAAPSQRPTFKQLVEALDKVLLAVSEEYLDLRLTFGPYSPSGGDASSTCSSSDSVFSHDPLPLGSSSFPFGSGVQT

SMILES | pIC50 (FGFR4 kinase) | pIC50 (FGFR1 kinase) | pIC50 (HuH-7 cells) | pIC50 (SK-HEP-1 cells) | Peak Time tmax [1] | AUC(0-t) [1] | AUC(0-inf) [1] | half-life [1] | MRT [1] | Cmax [1] | pIC50 (Hep 3B cells)
COc1ccccc1Nc1cc(NC(=O)N2CCCc3cc(CN4CCOCC4=O)c(C=O)nc32)ncc1C#N [Example 8, N-(5-Cyano-4-((2-methoxyphenyl)amino)pyridin-2-yl)-7-formyl-6-((3-carbonylmorpholino)methyl)-3,4-dihydro-1,8-naphthyridin-1(2H)-carboxamide] | 8.47 | < 5.00 | 8.07 | < 5.00 | 2 h | 4790 ng·h/mL | 4940 ng·h/mL | 1.16 h | 3.74 h | 2060 ng/mL | 9.05
CC1COC(=O)N1Cc1cc2c(nc1C=O)N(C(=O)Nc1cc(S[C@@H]3CCOC3)c(C#N)cn1)CCC2 (stereo partly drawn) [Example 44, N-(5-Cyano-4-(((R)-tetrahydrofuran-3-yl)thio)pyridin-2-yl)-7-formyl-6-(((S)-4-methyl-2-carbonyloxazolidin-3-yl)methyl)-3,4-dihydro-1,8-naphthyridin-1(2H)-carboxamide] | 8.19 | < 5.00 | 7.45 | < 5.00 | – | – | – | – | – | – | 7.94
COC[C@@H](C)Oc1cc(NC(=O)N2CCCc3cc(CN4CCOC4=S)c(C=O)nc32)ncc1C#N [Example 48, (R)-N-(5-Cyano-4-((1-methoxypropan-2-yl)oxy)pyridin-2-yl)-7-formyl-6-((2-thiooxazolidin-3-yl)methyl)-3,4-dihydro-1,8-naphthyridin-1(2H)-carboxamide] | 8.07 | < 5.00 | 7.81 | < 5.00 | – | – | – | – | – | – | 7.88
CC1OCCC1Sc1cc(NC(=O)N2CCCc3cc(CN4CCOCC4=O)c(C=O)nc32)ncc1C#N (centres unmarked) [Example 3, N-(5-Cyano-4-((2-methyltetrahydrofuran-3-yl)thio)pyridin-2-yl)-7-formyl-6-((3-carbonylmorpholino)methyl)-3,4-dihydro-1,8-naphthyridin-1(2H)-carboxamide] | 8.27 | < 5.00 | 7.39 | < 5.00 | – | – | – | – | – | – | 7.88

More lines, in order of rising pIC50 (FGFR4 kinase), values ahead:

pIC50 (FGFR4 kinase) | pIC50 (FGFR1 kinase) | pIC50 (HuH-7 cells) | pIC50 (SK-HEP-1 cells) | Peak Time tmax [1] | AUC(0-t) [1] | AUC(0-inf) [1] | half-life [1] | MRT [1] | Cmax [1] | SMILES | pIC50 (Hep 3B cells)
8.53 | < 5.00 | 7.35 | < 5.00 | 4 h | 1530 ng·h/mL | 1530 ng·h/mL | 2.55 h | 6.24 h | 1930 ng/mL | CO[C@H]1COCC1Nc1cc(NC(=O)N2CCCc3cc(CN4C(=O)OCC4C)c(C=O)nc32)ncc1C#N (stereo partly drawn) [Example 46, N-(5-Cyano-4-trans-(((3,4)-4-methoxytetrahydrofuran-3-yl)amino)pyridin-2-yl) -7-formyl-6-(((S)-4-methyl-2-carbonyloxazolidin-3-yl)methyl)-3,4-dihydro-1,8-naphthyridin-1(2H)-carboxamide] | 7.90
8.56 | < 5.00 | 7.62 | < 5.00 | 4 h | 5530 ng·h/mL | 5690 ng·h/mL | 0.98 h | 3.86 h | 1290 ng/mL | CONc1cc(NC(=O)N2CCCc3cc(CN4CCOCC4=O)c(C=O)nc32)ncc1C#N [Example 54, N-(5-Cyano-4-(methoxyamino)pyridin-2-yl)-7-formyl-6-((3-carbonylmorpholino)methyl)-3,4-dihydro-1,8-naphthyridine-1(2H)-carboxamide] | 7.76
8.60 | < 5.00 | 7.54 | < 5.00 | 2 h | 4990 ng·h/mL | 4030 ng·h/mL | 0.91 h | 2.7 h | 2060 ng/mL | CO[C@H]1CCN(c2cc(NC(=O)N3CCCc4cc(CN5CCN(C)CC5=O)c(C=O)nc43)ncc2C#N)C1 [Example 63, (S)-N-(5-Cyano-4-(3-methoxypyrrolidin-1-yl)pyridin-2-yl)-7-formyl-6-((4-methyl-2-carbonylpiperazin-1-yl)methyl)-3,4-dihydro-1,8-naphthyridin-1(2H)-carboxamide] | 7.86
